Numbering of substitutions follows the chain as printed.
How the values were obtained:
FUS–GFP [1] = molecular target: T1, FUS–GFP (Homo sapiens, UniProt P35637, G156E); test: condensate ageing: FRAP and fibre formation; assay type: biochemical; settings: 30 uM compound, 50 mM KCl, 1 mM DTT, pH 7.4, shaking; condensates
T1 construct: full-length FUS with C-terminal GFP; 6xHis-MBP tag cleaved by 3C protease; Sf9 insect cells; condensates at low salt
T1 sequence (P35637 1-526 G156E): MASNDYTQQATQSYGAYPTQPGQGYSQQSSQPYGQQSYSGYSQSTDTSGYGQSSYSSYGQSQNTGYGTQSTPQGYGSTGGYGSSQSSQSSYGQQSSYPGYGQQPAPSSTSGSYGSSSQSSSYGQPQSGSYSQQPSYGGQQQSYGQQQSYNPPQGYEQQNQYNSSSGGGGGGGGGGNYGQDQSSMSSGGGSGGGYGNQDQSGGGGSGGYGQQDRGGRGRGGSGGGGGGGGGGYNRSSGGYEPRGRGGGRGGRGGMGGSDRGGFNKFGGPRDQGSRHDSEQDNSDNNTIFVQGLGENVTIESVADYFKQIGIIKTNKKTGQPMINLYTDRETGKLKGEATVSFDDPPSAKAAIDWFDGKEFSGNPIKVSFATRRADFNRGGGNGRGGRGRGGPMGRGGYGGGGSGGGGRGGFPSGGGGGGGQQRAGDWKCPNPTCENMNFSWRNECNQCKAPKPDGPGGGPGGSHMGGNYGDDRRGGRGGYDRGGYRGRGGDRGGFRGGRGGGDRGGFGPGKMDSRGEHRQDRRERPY

FUS–GFP [2] = molecular target: T2, FUS–GFP (Homo sapiens, UniProt P35637); test: imaging of FUS-GFP condensates in vitro; assay type: biochemical; settings: 100 uM compound, 50 mM KCl, 1 mM DTT, pH 7.4, 0.7 uM FUS-GFP
T2 construct: full-length FUS with C-terminal GFP; 6xHis-MBP tag cleaved by 3C protease; Sf9 insect cells; condensates at low salt
T2 sequence (P35637 1-526): T1 sequence (P35637 1-526 G156E) with E156G

SMILES	condensate ageing: FRAP and fibre formation (FUS–GFP [1])	imaging of FUS-GFP condensates in vitro (FUS–GFP [2])
NC(=O)CCCCC1CCSS1 (racemic) [lipoamide]	Both lipoamide and lipoic acid reduced FUS-G156E–GFP condensate hardening and fiber formation	–
O=C(O)CCCC[C@@H]1CCSS1 [lipoic acid]	Both lipoamide and lipoic acid reduced FUS-G156E–GFP condensate hardening and fiber formation	–
O=C1c2c(O)ccc(O)c2C(=O)c2c(NCCNCCO)ccc(NCCNCCO)c21 [mitoxantrone]	–	the fewer smaller drops with mitoxantrone
